Assay results as given in US20240067632A1, “WEE1 Degrading Compounds and Uses Thereof” (Bristol-Myers Squibb Company, priority 2022, published 2024).
Where two headings read alike, the source gives them in different places.

Key:
[1] = biological target: T1, WEE1 (Homo sapiens, UniProt P30291+Q96SW2); experiment: WEE1-ePL degradation assay (LentiX-WEE1-ePL-GSPT1-ND cells, InCELL Hunter luminescence, 4 h); assay type: cell-based; settings: 293T-LentiX WEE1-ePL cells; for DC50: read-out: 293T-LentiX WEE1-ePL Degradation 4 hr (EC50)
T1 construct: C-terminal ePL-tagged (DiscoverX, Fremont, CA) full-length WEE1 expression construct; expressed in transfected cells; host or cells: LentiX-HEK293T (Invitrogen), lentiviral transduction; co-expressing GSPT1-GN (G576N, lacking the first 158 amino acids)
In short: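 Luminescent readout (InCELL Hunter, 30 min RT) of WEE1-ePL levels in transduced HEK293T cells after 4 h compound exposure at 37 °C. Dosing: 10 points, 3-fold steps, top 1 uM or 10 uM. EC50 from four-parameter logistic fit; Ymax set by DMSO.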

[2] = system: MKN45 cells; experiment: MKN45 cell proliferation assay (Cell-Titer-Glo, 120 h); assay type: cell-based; settings: for EC50: Homo sapiens, MKN-45, 120 h, Cell-Titer-Glo, read-out: MKN45 Cell Prolif. 120 hr (EC50); for MKN45 Cell Prolif. 120 hr (Ymin-Obs): minimal percent of DMSO control observed in the concentrations tested
In short: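 Growth inhibition was read as blank-corrected Cell-Titer-Glo luminescence expressed as percent DMSO control after 120 h at 37 C, 400 cells/well. Compounds tested in triplicate as 10-point half-log series from 1 or 10 uM, 0.1% DMSO; four-parameter fit gave EC50, and lowest observed percent control was reported as Ymin-obs.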

[3] = lower limit of the fit (0 = luciferase inhibitor, Ymax = DMSO control)

SMILES | 293T-LentiX WEE1-ePL Degradation 4 hr (Ymin) [1, 3] | DC50 [1] [nM] | EC50 ([2]; growth inhibition) [nM] | MKN45 Cell Prolif. 120 hr (Ymin-Obs) [2] | 293T-LentiX WEE1-ePL Degradation 4 hr (Ymin) ([1]; lower limit of the fit (Ymin=0 luciferase inhibitor, Ymax DMSO control)) | EC50 [2] [nM]
O=C1CCC(N2Cc3cc(O[C@H]4CCN(Cc5ccc6ncc(C7COC7)cc6c5)C4)ccc3C2=O)C(=O)N1 (stereo partly drawn) [3-(5-{[(3S)-1-{[3-(oxetan-3-yl)quinolin-6-yl]methyl}pyrrolidin-3-yl]oxy}-1-oxo-2,3-dihydro-1H-isoindol-2-yl)piperidine-2,6-dione] | 30 | 4.67 | 5.04 | 8.08 |  | 
O=C1CCC(N2Cc3cc(O[C@H]4CCN(Cc5cc6ccccc6nn5)C4)ccc3C2=O)C(=O)N1 (stereo partly drawn) [3-(5-{[(3S)-1-[(cinnolin-3-yl)methyl]pyrrolidin-3-yl]oxy}-1-oxo-2,3-dihydro-1H-isoindol-2-yl)piperidine-2,6-dione] | 26.03 | 12.5 | 66.3 | 8.97 |  | 
CO[C@@H]1CCCC[C@H]1c1ccc2cc(CN3CC[C@H](Oc4ccc5c(c4)CN(C4CCC(=O)NC4=O)C5=O)C3)ccc2n1 (stereo partly drawn) [3-(5-{[(3S)-1-({2-[(1S,2R)-2-methoxycyclohexyl]quinolin-6-yl}methyl)pyrrolidin-3-yl]oxy}-1-oxo-2,3-dihydro-1H-isoindol-2-yl)piperidine-2,6-dione] |  | 21.5 |  | 51.58 | 32.43 | 428
CN1CCc2c(cncc2CN2CC[C@H](Oc3ccc4c(c3)CN(C3CCC(=O)NC3=O)C4=O)C2)C1 (stereo partly drawn) [3-(5-{[(3S)-1-[(7-methyl-5,6,7,8-tetrahydro-2,7-naphthyridin-4-yl)methyl]pyrrolidin-3-yl]oxy}-1-oxo-2,3-dihydro-1H-isoindol-2-yl)piperidine-2,6-dione] | 68 | 558 | > 10000 | 84.06 |  | 
Cc1nc2ccccc2cc1CN1CC[C@H](Oc2ccc3c(c2)C(=O)N(C2CCC(=O)NC2=O)C3)C1 (stereo partly drawn) [3-(6-{[(3S)-1-[(2-methylquinolin-3-yl)methyl]pyrrolidin-3-yl]oxy}-1-oxo-2,3-dihydro-1H-isoindol-2-yl)piperidine-2,6-dione] | 87.055 |  |  | 79.9 |  | 
CC1(C)CN(c2ncc3cc(CN4CC[C@H](Oc5ccc6c(c5)CN(C5CCC(=O)NC5=O)C6=O)C4)ccc3n2)CCO1 (stereo partly drawn) [3-(5-{[(3S)-1-{[2-(2,2-dimethylmorpholin-4-yl)quinazolin-6-yl]methyl}pyrrolidin-3-yl]oxy}-1-oxo-2,3-dihydro-1H-isoindol-2-yl)piperidine-2,6-dione] | 31 | 11.6 | 7.67 | 9.381 |  | 
O=C1CC[C@H](N2Cc3cc(O[C@H]4CCN(Cc5ccc6nc([C@H]7CCOC7)ncc6c5)C4)ccc3C2=O)C(=O)N1 [(3S)-3-(1-oxo-5-{[(3S)-1-({2-[(3R)-oxolan-3-yl]quinazolin-6-yl}methyl)pyrrolidin-3-yl]oxy}-2,3-dihydro-1H-isoindol-2-yl)piperidine-2,6-dione] | 31 | 17.8 | 14.6 | 8.266 |  | 
CC1(C)COCC[C@H]1c1ccc2cc(CN3CC[C@H](Oc4ccc5c(c4)CN(C4CCC(=O)NC4=O)C5=O)C3)ccc2n1 (stereo partly drawn) [3-(5-{[(3S)-1-({2-[(4R)-3,3-dimethyloxan-4-yl]quinolin-6-yl}methyl)pyrrolidin-3-yl]oxy}-1-oxo-2,3-dihydro-1H-isoindol-2-yl)piperidine-2,6-dione] | 41 | 3.31 | 8.03 | 11.03 |  | 
O=C1CCC(N2Cc3cc(O[C@H]4CCN(Cc5ccc6nc(N7CCC7)ccc6c5)C4)ccc3C2=O)C(=O)N1 (stereo partly drawn) [3-(5-{[(3S)-1-{[2-(azetidin-1-yl)quinolin-6-yl]methyl}pyrrolidin-3-yl]oxy}-1-oxo-2,3-dihydro-1H-isoindol-2-yl)piperidine-2,6-dione] | 37 | 3.01 | 6.71 | 10.91 |  | 
CC(c1cnc2ccccc2c1)N1CC[C@@H](Oc2ccc3c(c2)CN(C2CCC(=O)NC2=O)C3=O)C1 (stereo in doubt) [rel-3-(1-oxo-5-{[(3R)-1-[1-(quinolin-3-yl)ethyl]pyrrolidin-3-yl]oxy}-2,3-dihydro-1H-isoindol-2-yl)piperidine-2,6-dione] | 50.89 | 83.4 | > 10000 | 76.71 |  | 
COCc1ccc2nc(CN3CC[C@H](Oc4ccc5c(c4)CN(C4CCC(=O)NC4=O)C5=O)C3)ccc2c1 (stereo partly drawn) [3-(5-{[(3S)-1-{[6-(methoxymethyl)quinolin-2-yl]methyl}pyrrolidin-3-yl]oxy}-1-oxo-2,3-dihydro-1H-isoindol-2-yl)piperidine-2,6-dione] | 46 | 11.7 | 89.6 | 26.02 |  | 
CO[C@H]1CCC[C@@H](c2ccc3cc(CN4CC[C@H](Oc5ccc6c(c5)CN(C5CCC(=O)NC5=O)C6=O)C4)ccc3n2)C1 (stereo partly drawn) [3-(5-{[(3S)-1-({2-[(1R,3S)-3-methoxycyclohexyl]quinolin-6-yl}methyl)pyrrolidin-3-yl]oxy}-1-oxo-2,3-dihydro-1H-isoindol-2-yl)piperidine-2,6-dione] | 27.5 | 3.49 | 1.96 | 7.623 |  | 
O=C1CCC(N2Cc3cc(O[C@H]4CCN(Cc5ccc6nc(N7CCCC78CCOCC8)ncc6c5)C4)ccc3C2=O)C(=O)N1 (stereo partly drawn) [3-(5-{[(3S)-1-[(2-{8-oxa-1-azaspiro[4.5]decan-1-yl}quinazolin-6-yl)methyl]pyrrolidin-3-yl]oxy}-1-oxo-2,3-dihydro-1H-isoindol-2-yl)piperidine-2,6-dione] | 47 | 18.1 | 14.1 | 20.87 |  | 
O=C1CCC(N2Cc3cc(O[C@H]4CCN(Cc5ccc6nc(N7CCCC(F)(F)C7)ccc6c5)C4)ccc3C2=O)C(=O)N1 (stereo partly drawn) [3-(5-{[(3S)-1-{[2-(3,3-difluoropiperidin-1-yl)quinolin-6-yl]methyl}pyrrolidin-3-yl]oxy}-1-oxo-2,3-dihydro-1H-isoindol-2-yl)piperidine-2,6-dione] | 25.84 | 18.5 | 11.2 | 12.35 |  | 
O=C1CCC(N2Cc3cc(O[C@H]4CCN(Cc5cc(F)c6nc(C7CCOCC7)ccc6c5)C4)ccc3C2=O)C(=O)N1 (stereo partly drawn) [3-(5-{[(3S)-1-{[8-fluoro-2-(oxan-4-yl)quinolin-6-yl]methyl}pyrrolidin-3-yl]oxy}-1-oxo-2,3-dihydro-1H-isoindol-2-yl)piperidine-2,6-dione] | 28 | 1.24 | 1.09 | 7.098 |  | 
O=C1CCC(N2Cc3cc(O[C@H]4CCN(Cc5ccc6nc(N7CC8(COC8)C7)ccc6c5)C4)ccc3C2=O)C(=O)N1 (stereo partly drawn) [3-(5-{[(3S)-1-[(2-{2-oxa-6-azaspiro[3.3]heptan-6-yl}quinolin-6-yl)methyl]pyrrolidin-3-yl]oxy}-1-oxo-2,3-dihydro-1H-isoindol-2-yl)piperidine-2,6-dione] | 41.5 | 7.76 | 10.7 | 14.91 |  | 
CNC(=O)c1ncc2cc(CN3CC[C@H](Oc4ccc5c(c4)CN(C4CCC(=O)NC4=O)C5=O)C3)ccc2n1 (stereo partly drawn) [6-{[(3S)-3-{[2-(2,6-dioxopiperidin-3-yl)-1-oxo-2,3-dihydro-1H-isoindol-5-yl]oxy}pyrrolidin-1-yl]methyl}-N-methylquinazoline-2-carboxamide] | 38 | 175 | 337 | 8.51 |  | 
COc1cncc(CN2CC[C@H](Oc3ccc4c(c3)CN(C3CCC(=O)NC3=O)C4=O)C2)c1C (stereo partly drawn) [3-(5-{[(3S)-1-[(5-methoxy-4-methylpyridin-3-yl)methyl]pyrrolidin-3-yl]oxy}-1-oxo-2,3-dihydro-1H-isoindol-2-yl)piperidine-2,6-dione] | 61 | 28.5 | 833 | 59.99 |  | 
